Entries after “also recorded” stand apart in the source; their conditions may differ.
How the values were obtained:
RPMI-8402 (T-ALL) cells = test: Cell viability assay (WST-1); type: cell-based, human; details: RPMI-8402, 24 h exposure, p53 mutated
Description: (§1) B-/T-ALL cell lines were incubated with increasing concentrations of drug (5–1000 nM) for 24 and 48 h.
(§2) In order to assess the cell viability after treatment with PF-00477736 (Pfizer), ALL cell lines were seeded in 96-well plates at 50,000 cell/100 μl/well with increasing concentrations of drug (0.005–2 μM) for 24 and 48 h and incubated at 37 °C. Cell viability was assessed by adding WST-1 reagent (Roche Applied Science, Basel, Switzerland) to the culture medium at 1:10 dilution. Cells were incubated at 37 °C, and the optical density was measured by microplate ELISA reader at λ = 450 after 3 h. The amount of the formazan formed directly correlates to the number of metabolically active cells. All viability experiments were performed in triplicates and repeated in least two separated experiments. In ex-vivo primary leukemia cells, the effects on cell viability were assessed by counting viable and non-viable cell numbers by the trypan blue dye exclusion method. Cells were seeded in six-well plates at 500,000 cell/1 ml with increasing concentrations of drug (0.1, 0.5, and 1 μM) for 24 h and incubated at 37 °C. Cellular viability was calculated as a percentage of the viable cells compared to the untreated controls (DMSO 0.1 %).

NALM-6 (B-ALL) cells = test: Cell viability assay (WST-1); type: cell-based, human; details: NALM-6, 24 h exposure, TP53 wild-type
Description: as §1, §2

[1] = system: normal bone marrow mononuclear cells; test: Viability of primary cultures of normal cells; type: cell-based, human; details: 24 h of exposure at 100, 500, and 1000 nM
Description: The efficacy of PF-00477736 was confirmed in primary blast cells from 14 newly diagnosed cases including ten BCR-ABL1-positive (71 %) cases and four BCR-ABL1-negative ALL cases (29 %). Leukemic cells were incubated with increasing concentrations of drug (0.1, 0.5, and 1 μM) for 24 h.
Normal bone marrow progenitors were harvested from bone marrow aspirations performed in lymphoma patients undergoing initial staging procedures, which then resulted negative for lymphoma infiltration. Normal peripheral blood progenitors were harvested from healthy donors.
as §2, with “The amount of the formazan formed directly correlates to the number of metabolically active cells. All viability experiments were performed in triplicates and repeated in least two separated experiments.” left out, “Cells were seeded in six-well plates at 500,000 cell/1 ml with increasing concentrations of drug (0.1, 0.5, and 1 μM) for 24 h and incubated at 37 °C.” left out

[2] = system: mice transplanted with T-ALL (ENU-induced murine leukemia); test: In vivo efficacy in mice transplanted with T-ALL
Description: Leukemic mice were generated by the usage of the tumorigenic agent N-ethyl-N-nitrosourea (ENU). […] Leukemic blasts coming from the spleen of leukemic animals were transplanted into C57BL/6Ly5.1-recipient mice. Three days after transplantation, a time sufficient for leukemic blasts to home the bone marrow of the host, we started to treat the animals.
Experiments involving mice were performed in agreement with Italian guidelines and after the approval of the Institutional Review Board of the European Institute of Oncology. Leukemic mice were generated by a single administration of the tumorigenic agent N-ethyl-N-nitrosourea (Sigma, 50 mg/kg intraperitoneally). Spleen cells from leukemic C57BL6/Ly5.2 mice were injected intravenously (2 × 10^6 cells/mouse) into non-irradiated, recipient C57BL6/Ly5.1 mice. PF-0077736 was administered intraperitoneally starting from day 3 after the transplant of leukemic cells. Mice received doses of PF-0077736 (40 mg/kg each dose) every 3 days for four treatments (q3dx4). Kaplan-Meyer rank test was used to compare the survival rate between treated and control mice.

## Cn1cc(-c2[nH]c3cc(NC(=O)[C@H](N)C4CCCCC4)cc4c3c2C=NNC4=O)cn1 [PF-00477736]
RPMI-8402 (T-ALL) cells
  IC50: 57.4 nM
NALM-6 (B-ALL) cells
  IC50: 1420 nM
[1]
  cell viability: did not reduce viability
[2]; 40 mg/kg intraperitoneally q3dx4, five treated vs seven control mice, p value =0.0009, listed as PF-0477736
  overall survival vs vehicle: significantly increases the overall survival; also recorded: increases the survival of treated mice
[2]; 40 mg/kg intraperitoneally q3dx4 from day 3 after transplant, five mice, controls (PBS) die all at day 17
  survival of treated animals post transplantation: up to 59 days
[2]; 40 mg/kg, q3dx4 schedule, intraperitoneally
  toxicity for the animals: seems not to be toxic

Source: paper PMC4635624, “In vitro and in vivo single-agent efficacy of checkpoint kinase inhibition in acute lymphoblastic leukemia” (Journal of Hematology & Oncology, 2015)
